Assay results from ChEMBL document CHEMBL1201862, “PubChem BioAssay data set” (2004).
Calls of active or inactive are those of the source.

Legend:
[1] = molecular target: T1, Heat shock factor protein 1 (Mus musculus, UniProt P38532); assay: enhancement of HSF1-driven luciferase signal – cell-based, NIH3T3, luminescence, dose retest, confirmation (AID 435004); format: functional;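 also: stress induced by proteasome inhibitor MG132 added 30 min after compound; luciferase reporter driven by HSF1 response element in NIH3T3 cells; actives raise luminescence as potentiators of the MG132 stress response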
T1 sequence (P38532 whole entry): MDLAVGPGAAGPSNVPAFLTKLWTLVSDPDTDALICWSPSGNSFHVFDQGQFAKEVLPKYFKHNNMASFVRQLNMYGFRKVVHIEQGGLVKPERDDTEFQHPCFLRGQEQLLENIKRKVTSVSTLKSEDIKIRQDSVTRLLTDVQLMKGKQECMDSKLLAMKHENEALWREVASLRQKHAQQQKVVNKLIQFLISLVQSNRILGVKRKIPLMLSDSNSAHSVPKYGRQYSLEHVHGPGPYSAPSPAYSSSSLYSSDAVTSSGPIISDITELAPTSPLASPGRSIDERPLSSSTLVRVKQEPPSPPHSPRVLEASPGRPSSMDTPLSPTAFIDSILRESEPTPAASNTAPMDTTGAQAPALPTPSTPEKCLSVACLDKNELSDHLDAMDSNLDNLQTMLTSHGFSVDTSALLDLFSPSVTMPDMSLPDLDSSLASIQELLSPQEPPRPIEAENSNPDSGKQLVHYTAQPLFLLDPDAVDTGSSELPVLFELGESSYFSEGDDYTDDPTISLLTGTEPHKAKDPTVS

[2] = molecular target: T1, Heat shock factor protein 1; assay: decrease of HSF1-responsive luciferase luminescence – cell-based, NIH3T3, dose retest, confirmation (AID 2382); format: functional;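 also: NIH3T3 fibroblasts with HSF1-driven luciferase reporter stressed by proteasome inhibitor MG132; luminescence from HSF1-driven luciferase expression after 8 hours of MG132 stress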
[3] = Luminescence Cell-Based Dose Confirmation HTS to Identify Activators of 5'UTR Stem-Loop Driven Alpha-Synuclein mRNA Translation in H4 Neuroglioblastoma Cells. [Related pubchem assays: 1829 (Project Summary), 1814 (Primary HTS)]; format: functional
[4] = Luminescence Cell-Based Dose Response HTS to Identify Activators of Luciferase Translation or Activity in H4 […] Cells. [Related pubchem assays: 1829 (Project Summary), 1814 (Primary HTS)]; format: functional
H4 = assay: Luminescence Cell-Based Dose Response HTS to Identify Activators of 5'UTR Stem-Loop Driven Prion Protein mRNA Translation in H4 Neuroglioblastoma Cells. [Related pubchem assays: 1829 (Project Summary), 1814 (Primary HTS)]; format: functional; settings: Homo sapiens
[5] = viability of uninfected HEp-2 cells – cell-based, HTS, cytotoxicity control for RSV inhibitor project, dose response (AID 2410); format: functional; settings: human respiratory syncytial virus
[6] = molecular target: T2, Replicative DNA helicase DnaB (Mycobacterium tuberculosis, UniProt P9WMR3); assay: DnaB intein splicing inhibitors, dose response, biochemical, cell-free fluorescence (AID 449749); format: functional
T2 sequence (P9WMR3 whole entry): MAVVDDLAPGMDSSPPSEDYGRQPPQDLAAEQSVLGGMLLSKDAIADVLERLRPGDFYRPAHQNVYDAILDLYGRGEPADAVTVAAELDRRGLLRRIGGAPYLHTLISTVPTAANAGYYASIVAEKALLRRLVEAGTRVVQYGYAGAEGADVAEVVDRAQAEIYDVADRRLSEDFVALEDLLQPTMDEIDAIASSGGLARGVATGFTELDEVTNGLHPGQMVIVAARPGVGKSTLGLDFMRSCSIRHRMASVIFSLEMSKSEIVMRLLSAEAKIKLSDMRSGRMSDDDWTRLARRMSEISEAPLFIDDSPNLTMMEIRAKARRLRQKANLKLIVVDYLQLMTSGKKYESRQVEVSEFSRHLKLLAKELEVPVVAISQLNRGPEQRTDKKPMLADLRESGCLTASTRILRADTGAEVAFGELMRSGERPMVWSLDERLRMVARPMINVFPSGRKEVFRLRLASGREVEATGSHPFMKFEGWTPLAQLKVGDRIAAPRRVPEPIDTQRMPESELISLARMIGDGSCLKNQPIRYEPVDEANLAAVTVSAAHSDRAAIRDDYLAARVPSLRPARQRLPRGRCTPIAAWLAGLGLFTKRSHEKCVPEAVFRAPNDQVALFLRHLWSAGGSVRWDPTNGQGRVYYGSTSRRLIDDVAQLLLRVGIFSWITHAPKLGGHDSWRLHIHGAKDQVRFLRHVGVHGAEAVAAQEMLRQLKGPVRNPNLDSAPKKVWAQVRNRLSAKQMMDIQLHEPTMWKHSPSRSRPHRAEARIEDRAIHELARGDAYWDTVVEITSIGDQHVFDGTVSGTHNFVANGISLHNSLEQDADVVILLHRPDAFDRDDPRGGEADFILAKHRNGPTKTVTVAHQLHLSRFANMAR

Protein RecA = molecular target: T3, Protein RecA (Mycobacterium tuberculosis, UniProt P9WHJ3); assay: Fluorescence Cell-Free Homogeneous Dose Retest to Identify Inhibitors of RecA-Intein Splicing Activity. [Related pubchem assays (depositor defined):AID2097, AID2223, AID489010, AID492950]; format: functional
T3 sequence (P9WHJ3 whole entry): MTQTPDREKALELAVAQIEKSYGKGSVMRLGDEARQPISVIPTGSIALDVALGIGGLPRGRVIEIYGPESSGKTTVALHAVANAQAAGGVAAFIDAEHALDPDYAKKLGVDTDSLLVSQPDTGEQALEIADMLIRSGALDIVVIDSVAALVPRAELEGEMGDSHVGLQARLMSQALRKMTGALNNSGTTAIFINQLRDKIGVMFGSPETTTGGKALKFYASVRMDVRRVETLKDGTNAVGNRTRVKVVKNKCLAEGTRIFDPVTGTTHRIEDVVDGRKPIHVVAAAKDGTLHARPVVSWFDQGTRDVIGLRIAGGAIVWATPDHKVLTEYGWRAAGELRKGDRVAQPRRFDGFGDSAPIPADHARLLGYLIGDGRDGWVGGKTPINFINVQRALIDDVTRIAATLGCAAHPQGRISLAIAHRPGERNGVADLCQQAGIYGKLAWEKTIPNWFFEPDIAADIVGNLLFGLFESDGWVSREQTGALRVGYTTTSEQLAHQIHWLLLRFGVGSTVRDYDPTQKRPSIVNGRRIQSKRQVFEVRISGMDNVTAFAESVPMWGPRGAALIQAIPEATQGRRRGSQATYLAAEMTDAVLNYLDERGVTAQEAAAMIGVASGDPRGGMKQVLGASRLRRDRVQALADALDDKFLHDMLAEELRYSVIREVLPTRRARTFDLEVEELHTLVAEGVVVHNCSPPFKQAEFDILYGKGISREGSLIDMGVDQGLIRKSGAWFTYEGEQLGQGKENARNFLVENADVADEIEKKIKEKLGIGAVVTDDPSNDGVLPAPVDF

[7] = molecular target: T4, Rac GTPase-activating protein 1 (Homo sapiens, UniProt Q9H0H5); assay: blockers of MgcRacGAP-driven Rac1 GTP hydrolysis – biochemical, ADP Hunter fluorescence, primary and confirmatory, confirmation (AID 624330); format: functional
T4 sequence (Q9H0H5 whole entry): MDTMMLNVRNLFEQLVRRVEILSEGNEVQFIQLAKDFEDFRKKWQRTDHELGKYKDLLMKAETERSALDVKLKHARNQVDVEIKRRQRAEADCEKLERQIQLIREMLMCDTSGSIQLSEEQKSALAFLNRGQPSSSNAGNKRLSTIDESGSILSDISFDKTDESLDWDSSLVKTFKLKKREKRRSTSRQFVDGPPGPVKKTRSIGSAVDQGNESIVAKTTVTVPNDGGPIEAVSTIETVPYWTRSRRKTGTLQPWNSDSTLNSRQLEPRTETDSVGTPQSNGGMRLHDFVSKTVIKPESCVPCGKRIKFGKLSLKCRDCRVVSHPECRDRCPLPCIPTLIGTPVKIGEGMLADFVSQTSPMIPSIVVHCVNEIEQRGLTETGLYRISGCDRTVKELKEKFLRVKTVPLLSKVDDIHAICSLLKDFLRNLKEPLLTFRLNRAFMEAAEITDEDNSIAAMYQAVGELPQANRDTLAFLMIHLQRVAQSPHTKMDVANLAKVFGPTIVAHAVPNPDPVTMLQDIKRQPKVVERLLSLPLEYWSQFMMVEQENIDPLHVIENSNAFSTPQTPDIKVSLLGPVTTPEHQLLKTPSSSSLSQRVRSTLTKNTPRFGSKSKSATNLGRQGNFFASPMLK

Paired box protein Pax-8 = Paired box protein Pax-8 (Homo sapiens, UniProt Q06710); assay: PAX8 transcriptional activity inhibition in RMG-I – RMG-I cells, luciferase, cherry-pick, dose response (AID 687027); format: functional, cell-based;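 also: luciferase reporter driven by Pax8 target thyroperoxidase promoter measured by SteadyGlo luminescence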
Cytochrome P450 1A2 = molecular target: T5, Cytochrome P450 1A2 (Homo sapiens, UniProt P05177);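 also: PubChem cytochrome P450 panel assay, CYP1A2 panel member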
T5 sequence (P05177 whole entry): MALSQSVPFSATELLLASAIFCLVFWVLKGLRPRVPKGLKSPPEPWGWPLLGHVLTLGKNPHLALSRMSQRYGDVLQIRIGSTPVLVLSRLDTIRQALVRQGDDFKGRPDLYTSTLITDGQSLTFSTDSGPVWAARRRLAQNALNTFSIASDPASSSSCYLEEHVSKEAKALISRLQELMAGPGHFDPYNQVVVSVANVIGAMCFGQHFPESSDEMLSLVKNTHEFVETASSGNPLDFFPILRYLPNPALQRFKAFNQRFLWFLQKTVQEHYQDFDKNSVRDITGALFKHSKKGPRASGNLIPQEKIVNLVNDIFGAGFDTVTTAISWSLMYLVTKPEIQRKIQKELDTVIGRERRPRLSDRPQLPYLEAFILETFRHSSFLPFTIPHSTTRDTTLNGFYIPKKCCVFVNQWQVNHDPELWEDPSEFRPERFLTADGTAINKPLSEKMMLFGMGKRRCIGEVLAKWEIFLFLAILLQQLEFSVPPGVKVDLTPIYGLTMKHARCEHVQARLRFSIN

Cytochrome P450 3A4 = Cytochrome P450 3A4 (Homo sapiens, UniProt P08684);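 also: CYP3A4 tested as one member of a cytochrome P450 panel screen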
Chain of Cytochrome P450 3A4 (P08684 whole entry): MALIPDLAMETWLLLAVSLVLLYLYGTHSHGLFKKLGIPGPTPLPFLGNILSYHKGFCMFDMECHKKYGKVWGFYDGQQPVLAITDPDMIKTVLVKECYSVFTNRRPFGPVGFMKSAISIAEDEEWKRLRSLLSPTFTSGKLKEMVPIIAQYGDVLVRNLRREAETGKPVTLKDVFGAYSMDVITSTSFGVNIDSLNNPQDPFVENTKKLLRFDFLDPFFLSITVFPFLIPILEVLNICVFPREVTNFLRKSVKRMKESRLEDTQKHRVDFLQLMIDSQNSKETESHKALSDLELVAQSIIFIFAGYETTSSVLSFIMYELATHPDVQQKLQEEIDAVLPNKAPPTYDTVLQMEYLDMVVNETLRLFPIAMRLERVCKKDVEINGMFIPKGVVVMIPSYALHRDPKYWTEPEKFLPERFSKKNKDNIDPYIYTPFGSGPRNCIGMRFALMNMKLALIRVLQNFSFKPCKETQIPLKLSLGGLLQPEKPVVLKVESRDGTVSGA

Chain of Paired box protein Pax-8 (Q06710 whole entry): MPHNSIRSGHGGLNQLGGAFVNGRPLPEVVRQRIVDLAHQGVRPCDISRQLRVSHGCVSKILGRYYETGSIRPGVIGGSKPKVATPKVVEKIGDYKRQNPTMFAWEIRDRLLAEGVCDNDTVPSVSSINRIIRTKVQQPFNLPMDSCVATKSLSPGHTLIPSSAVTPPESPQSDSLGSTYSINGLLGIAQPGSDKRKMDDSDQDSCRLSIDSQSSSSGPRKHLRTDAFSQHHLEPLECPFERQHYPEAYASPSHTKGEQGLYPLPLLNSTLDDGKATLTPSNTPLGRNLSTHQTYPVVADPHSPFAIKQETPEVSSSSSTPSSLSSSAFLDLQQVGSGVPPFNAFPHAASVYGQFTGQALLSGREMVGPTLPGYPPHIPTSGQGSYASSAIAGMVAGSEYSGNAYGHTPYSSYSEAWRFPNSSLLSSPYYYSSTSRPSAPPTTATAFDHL

## CCOc1ccc(NC(=O)C2CC(=O)N3CCCN=C3S2)cc1 (configuration not stated)
[1]
  EC50: > 260 µM (inactive)

## Oc1ccccc1N1CCN(c2ncnc3scc(-c4ccc(F)cc4)c23)CC1
[2]
  EC50: > 195 µM (not active)

## COc1ccc([C@@H]2[C@@H]3C(=O)N(C(C)(C)C)C(=O)[C@@H]3[C@]3(Cc4ccccc4)C(=O)N(c4cccc(C)c4)C(=O)N23)cc1
[3]
  EC50: > 120 µM (not active)
[4]
  EC50: > 120 µM (not active)
H4
  EC50: > 120 µM (not active)

## Cc1cc(O)ccc1Nc1nc(-c2cccs2)cs1
[5]
  CC50: 21 µM (active)
[6]
  AC50: 13.2 µM (active)
Protein RecA
  EC50: 11.5 µM (active)
[7]
  IC50: 46.5 µM (active)

## COc1cccc(CNc2ccc([N+](=O)[O-])cc2Cl)c1O
[1]
  EC50: 163 µM (active)

## CCOC(=O)c1c(N2C(=O)C3C4C=CC(O4)C3C2=O)sc2c1CCCC2 (configuration not stated)
[1]
  EC50: > 260 µM (inactive)

## Cc1ccc(NC(=O)CN(C)C2CCCCC2)cc1Cl
[2]
  EC50: > 195 µM (not active)
[7]
  IC50: 152 µM (active)

## O=C(CSCc1ccccc1)Nc1ccc2c(c1)OCO2
[3]
  EC50: 26 µM (active)
[4]
  EC50: 2.27 µM (inconclusive)
H4
  EC50: 18.6 µM (active)

## CCOc1ccc(NC(=O)c2cccc3ccccc23)cc1
[3]
  EC50: 72.3 µM (active)
[4]
  EC50: 11.5 µM (active)
H4
  EC50: > 120 µM (not active)

## C=CCn1c(C)cc(C(=O)COC(=O)CNC(=O)c2ccccc2)c1C
[2]
  EC50: 2.44 µM (active)

## O=C(CCS(=O)(=O)c1ccccc1)Nc1ccccn1
[1]
  EC50: > 260 µM (inactive)

## NS(=O)(=O)c1ccc(CCNC(=O)c2ccc([N+](=O)[O-])s2)cc1
[1]
  EC50: 15.7 µM (active)

## COc1cc(/C=N/N2CCN(C3c4ccccc4-c4ccccc43)CC2)cc(OC)c1OC
[1]
  EC50: > 260 µM (inactive)

## COCCCNC(=O)c1ccc(NS(C)(=O)=O)cc1
[1]
  EC50: > 260 µM (inactive)

## COc1ccc(C(c2nnnn2Cc2ccccc2)N2CCC(n3c(O)nc4ccccc43)CC2)cc1 (configuration not stated)
Paired box protein Pax-8
  AC50: 6.91 µM (active)

## O=C(Cc1ccccc1)Nc1cc(Cl)ccc1Sc1ccccc1
[1]
  EC50: > 260 µM (inactive)

## CCCNC(=O)NC1C(NC(=O)NCCC)N(C)C(=O)N1C (configuration not stated)
[2]
  EC50: > 195 µM (not active)

## Cc1ccc(S(=O)(=O)n2ccc(=O)[nH]2)cc1
[2]
  EC50: > 195 µM (not active)

## Cc1ccc(SCCCCN2CCOCC2)cc1
[1]
  EC50: > 260 µM (inactive)

## NC(CSCc1cccc(Br)c1)C(=O)O (configuration not stated)
[1]
  EC50: > 260 µM (inactive)

## CSc1ccc(N2C(=O)NC3(CCCCC3)C2=O)cc1
[3]
  EC50: 20.4 µM (active)
[4]
  EC50: 96.3 µM (active)
H4
  EC50: 19.7 µM (active)

## Cc1ccc2c(c1)c1cccc3c1n2CCN3CCC(N)=O
[3]
  EC50: 1.71 µM (active)
[4]
  EC50: > 120 µM (not active)
H4
  EC50: 9.21 µM (active)

## O=C(CSc1ncccn1)NCCc1ccccc1
[2]
  EC50: > 195 µM (not active)

## CCc1ccc(NC(=O)c2cnc3scc(C)n3c2=O)cc1
[3]
  EC50: 9.98 µM (active)
[4]
  EC50: 17.6 µM (active)
H4
  EC50: 12.6 µM (active)

## COc1cccc(-n2c(SCC(=O)NCC3CCCO3)nc3c(c2=O)SCC3)c1 (configuration not stated)
[2]
  EC50: > 195 µM (not active)

## COc1ccccc1NC(=O)[C@H](COCc1ccccc1)NC(=O)OC(C)(C)C
[2]
  EC50: > 195 µM (not active)
Cytochrome P450 1A2
  AC50: 25.1 µM (inconclusive)
Cytochrome P450 3A4
  AC50: 39.8 µM (inconclusive)

## CC(C)(C)c1cc(-n2ccnc2)n2ncc(-c3ccc(Cl)cc3)c2n1
[3]
  EC50: > 120 µM (not active)
[4]
  EC50: 13.7 µM (active)
H4
  EC50: 78.9 µM (active)

## Oc1onc(-c2ccccc2)c1-c1ccccc1
[2]
  EC50: > 195 µM (not active)

## CN(C)c1ccc(/C=N/NC(=O)c2ccccc2Cl)cc1
[2]
  EC50: > 195 µM (not active)

## CC1=CC(C)=Nc2cc(C)ccc2N1
[3]
  EC50: 33.3 µM (active)
[4]
  EC50: > 60 µM (not active)
H4
  EC50: 41.1 µM (active)
